Measured values as given in ChEMBL document CHEMBL1159272, “Antimicrobial metabolites from a bacterial symbiont” (1995).
In brackets after ≈: the same amount, converted by molar mass.

What was measured:
Type in all cases: functional
Aspergillus fumigatus = test: Antifungal activity against Aspergillus fumigatus ATCC 13073 after 24 hrs by serial dilution method; conditions: ATCC 13073, 24 h
Aspergillus flavus = test: Antifungal activity against Aspergillus flavus ATCC 24133 after 24 hrs by serial dilution method; conditions: ATCC 24133, 24 h
Botrytis cinerea = test: Antifungal activity against Botrytis cinerea after 48 hrs by serial dilution method
Candida tropicalis = test: Antifungal activity against Candida tropicalis CBS94 after 24 hrs by serial dilution method
Cryptococcus neoformans = test: Antifungal activity against Cryptococcus neoformans ATCC 14117 after 24 hrs by serial dilution method; conditions: ATCC 14117, 24 h
Phytophthora infestans = test: Antifungal activity against Phytophthora infestans after 96 hrs by serial dilution method
Globisporangium ultimum = test: Antifungal activity against Pythium ultimum after 24 hrs by serial dilution method

CC(C)C(=O)C(O)Cc1c[nH]c2ccccc12 (stereo unspecified)
MIC (Aspergillus fumigatus): > 100 µg/mL
MIC (Aspergillus flavus): > 100 µg/mL
MIC (Botrytis cinerea): 12 µg/mL (≈ 51.9 µM)
MIC (Candida tropicalis): > 100 µg/mL
MIC (Cryptococcus neoformans): > 100 µg/mL
MIC (Phytophthora infestans): 50 µg/mL (≈ 216 µM)
MIC (Globisporangium ultimum): > 100 µg/mL

CCC(C)C(=O)C(O)Cc1c[nH]c2ccccc12 (stereo unspecified)
MIC (Aspergillus fumigatus): > 100 µg/mL
MIC (Aspergillus flavus): > 100 µg/mL
MIC (Botrytis cinerea): 12 µg/mL (≈ 48.9 µM)
MIC (Candida tropicalis): > 100 µg/mL
MIC (Cryptococcus neoformans): > 100 µg/mL
MIC (Phytophthora infestans): 100 µg/mL (≈ 408 µM)
MIC (Globisporangium ultimum): > 100 µg/mL

CC(=O)OC(Cc1c[nH]c2ccccc12)C(=O)C(C)C (stereo unspecified)
MIC (Aspergillus fumigatus): > 100 µg/mL
MIC (Aspergillus flavus): > 100 µg/mL
MIC (Botrytis cinerea): > 100 µg/mL
MIC (Candida tropicalis): > 100 µg/mL
MIC (Cryptococcus neoformans): 25 µg/mL (≈ 91.5 µM)

CCC(C)C(=O)C(Cc1c[nH]c2ccccc12)OC(C)=O (stereo unspecified)
MIC (Aspergillus fumigatus): > 100 µg/mL
MIC (Aspergillus flavus): > 100 µg/mL
MIC (Botrytis cinerea): > 100 µg/mL
MIC (Candida tropicalis): > 100 µg/mL
MIC (Cryptococcus neoformans): 50 µg/mL (≈ 174 µM)
MIC (Phytophthora infestans): 100 µg/mL (≈ 348 µM)
MIC (Globisporangium ultimum): > 100 µg/mL
